We go through twelve molecules from PubChem BioAssay (NCI).

Several values for one entry are separate records, joined by “and”; a condition that tells them apart may be missing. Identical values can stand only once.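 Five compound concentrations were applied to cells in 96-well plates for 48 hours; endpoints were derived by simple linear interpolation of the resulting dose-response curve. GI50: concentration for 50% inhibition of growth. TGI marks complete inhibition of growth.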

Holding throughout (experiment): inhibition of tumour cell growth, NCI panel, 48 h
For test [1], the system named is DMS 273 small cell lung.
Test [2] relates to HOP-18 NSCLC.
In test [3] the test system is KM20L2 colon.
Test [4] concerns LXFL 529 NSCLC.
The subject of test [5] is RXF-631 renal.
For test [6], the system named is SNB-78 CNS.
In test [7] the test system is XF 498 CNS.
Test [8] has as its system MDA-N.
Test [9] relates to T-47D breast.

Regarding `COc1cccc(C(=O)N2CCc3ccccc32)c1OC`, the TGI in test [1], in test [2], in test [3], in [4], in test [5] and in test [6] was above 100 µM in each case. Moreover, in [7], the TGI is above 100 µM.

For the molecule `CN1c2ccccc2N(C)C2C1N(C)c1ccccc1N2C` (stereo not drawn), the TGI was above 100 µM in [1]; above 100 µM in test [3]; above 100 µM in test [4]; above 100 µM in [5]; above 100 µM in test [6]; 21.7 µM in test [7].

In the case of `CCNC(=O)C#CC(=O)NCC`, the GI50 is above 10 µM in test [1]; above 10 µM in [2]; above 10 µM in test [3]; above 10 µM in test [4]; above 10 µM in [5]; above 100 µM in [6]. For the same molecule, the TGI was > 10 µM and 39.6 µM in test [1]; above 100 µM in test [2]; above 100 µM in [3]; above 100 µM in test [4]; above 100 µM in test [5]; above 100 µM in test [6]. In test [7], the TGI is above 100 µM.

`CN(C)C(N)=NC#N`: the TGI in test [1], in test [2], in test [3], in test [4], in test [5] and in test [6] was above 100 µM each time.

With `COC(=O)c1sc(C(=O)OC)c2c1CSC2`, the TGI in [1], in test [2], in test [3], in test [4], in [8] and in test [5] was above 100 µM each time. The TGI was above 100 µM in test [6] and 81.6 µM in test [7].

Consider `COC1OC(CO)C(O)C(O)C1Br` (stereo not drawn), for which the TGI in test [1], in [2], in [3], in [4], in test [5] and in [6] was above 100 µM throughout. This molecule also gave a TGI in test [7] above 100 µM.

Regarding `COc1cccc(NC(=O)CC(=O)N2N=C(N(CCC#N)c3ccccc3C)CC2c2ccccc2)c1` (stereo not drawn), the TGI in test [1], in [2], in [3], in test [4], in test [5] and in test [6] was above 100 µM throughout.

With `O=C(Nc1nc2ccccc2n1Cc1ccccc1)NC12CC3CC(CC(C3)C1)C2`, the TGI in [1] is 55.1 µM; in test [2], above 100 µM; in [3], above 100 µM; in [4], above 100 µM; in test [6], 49.1 µM; in test [7], 73.8 µM.

As for `COc1cc2noc(-c3ccccc3)c2cc1OC`, the TGI in [1], in test [2], in test [3], in test [4], in test [5] and in [6] was above 100 µM each time.

With `O=C1C=C(Br)C(=O)C12CCc1ccccc12` (stereo not drawn), the TGI in test [1] worked out at 37.8 µM; in test [2], 16.1 µM; in test [3], 64.5 µM; in test [4], 13.2 µM; in test [8] it was 38 µM; in test [6] it was 59.4 µM. Moreover, the TGI in test [9] turned out to be 50.4 µM; in test [7] it was 28.8 µM.

As to `CC(=O)OCCOCNC(=S)N/N=C(\C)c1cnc2ccccc2n1`, the TGI in test [1], in test [2], in [3], in [4], in [6] and in test [7] was above 100 µM in each case.

As to `NC(=O)N/N=C/C(/C=N/NC(N)=O)[N+](=O)[O-]`, the TGI in [3], in [4], in [5] and in [7] was above 100 µM each time.
